Measured values taken from patent US4923969A, “Preparation of 99m Tc radiopharmaceuticals” (The Commonwealth of Australia, priority 1983, dated 1990).

Experiment: Stability of dried 99mTcNCl4- preparation
Type: physicochemical
Experimental: Samples of the ^99m TcNCl4^- preparation were taken to dryness in a rotary evaporator and stored for 24 hours (a) in air at room temperature, (b) at 80° C., and (c) at room temperature and 100% humidity. They were then used to prepare ^99m TcN-DTPA by addition of ligand as before.

- storage time for which the dry reagent was stable ("stable for up to") (dry, air at room temperature, 80° C., or room temperature and 100% humidity): ≥ 24 h
Compound: [N]#[99Tc-]([Cl])([Cl])([Cl])[Cl].[Na+] [^99m TcNCl4^-, sodium tetrachloronitridotechnetate]
- chromatographic behaviour (HPLC) after storage of the dry reagent (24 hours in air at room temperature, at 80° C., or at room temperature and 100% humidity, tested as 99mTcN-DTPA): No significant difference in chromatographic behaviour
- stability of the dry preparation for distribution (dry preparation): sufficiently stable to be prepared in a central laboratory or manufacturing site and distributed to users
